From patent US11759455B2, “Substituted 1H-imidazo[4,5-b]pyridin-2(3H)-ones and their use as GLUN2B receptor modulators” (JANSSEN PHARMACEUTICA NV, priority 2016, dated 2023)
Read-outs that look alike come from different tables or passages of the source.

Biological target: T1, human GluN1/GluN2B NMDA receptors (Homo sapiens, UniProt Q13224)
T1 construct: expressed in transfected cells
Assay: Cell-based calcium flux (FLIPR) assay on cloned human NR1/NR2B ion channels expressed in mammalian cells (standard and HTS buffer variants);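 note: stable Tet-On inducible cell line, Ca2+ influx triggered by glutamate at about EC40 plus 10 µM glycine, fluorescent dye read-out over 5 min, normalized to control wells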

[1] = standard assay buffer (0.5 mM MgCl2 dye loading; 137 mM NaCl, 4 mM KCl assay buffer), human GluN1/GluN2B cells, read-out: NR2B IC50 (μM) standard assay
[2] = standard assay buffer (0.5 mM MgCl2 in dye loading buffer; 137 mM NaCl, 4 mM KCl in assay buffer), human GluN1/GluN2B, read-out: NR2B IC50 (μM) standard assay
[3] = HTS assay buffer (1.5 mM MgCl2 in dye loading buffer; 150 mM NaCl, 3 mM KCl in assay buffer), human GluN1/GluN2B, read-out: NR2B IC50 (μM) HTS assay

T1 sequence (Q13224 27-1484, other chains not shown): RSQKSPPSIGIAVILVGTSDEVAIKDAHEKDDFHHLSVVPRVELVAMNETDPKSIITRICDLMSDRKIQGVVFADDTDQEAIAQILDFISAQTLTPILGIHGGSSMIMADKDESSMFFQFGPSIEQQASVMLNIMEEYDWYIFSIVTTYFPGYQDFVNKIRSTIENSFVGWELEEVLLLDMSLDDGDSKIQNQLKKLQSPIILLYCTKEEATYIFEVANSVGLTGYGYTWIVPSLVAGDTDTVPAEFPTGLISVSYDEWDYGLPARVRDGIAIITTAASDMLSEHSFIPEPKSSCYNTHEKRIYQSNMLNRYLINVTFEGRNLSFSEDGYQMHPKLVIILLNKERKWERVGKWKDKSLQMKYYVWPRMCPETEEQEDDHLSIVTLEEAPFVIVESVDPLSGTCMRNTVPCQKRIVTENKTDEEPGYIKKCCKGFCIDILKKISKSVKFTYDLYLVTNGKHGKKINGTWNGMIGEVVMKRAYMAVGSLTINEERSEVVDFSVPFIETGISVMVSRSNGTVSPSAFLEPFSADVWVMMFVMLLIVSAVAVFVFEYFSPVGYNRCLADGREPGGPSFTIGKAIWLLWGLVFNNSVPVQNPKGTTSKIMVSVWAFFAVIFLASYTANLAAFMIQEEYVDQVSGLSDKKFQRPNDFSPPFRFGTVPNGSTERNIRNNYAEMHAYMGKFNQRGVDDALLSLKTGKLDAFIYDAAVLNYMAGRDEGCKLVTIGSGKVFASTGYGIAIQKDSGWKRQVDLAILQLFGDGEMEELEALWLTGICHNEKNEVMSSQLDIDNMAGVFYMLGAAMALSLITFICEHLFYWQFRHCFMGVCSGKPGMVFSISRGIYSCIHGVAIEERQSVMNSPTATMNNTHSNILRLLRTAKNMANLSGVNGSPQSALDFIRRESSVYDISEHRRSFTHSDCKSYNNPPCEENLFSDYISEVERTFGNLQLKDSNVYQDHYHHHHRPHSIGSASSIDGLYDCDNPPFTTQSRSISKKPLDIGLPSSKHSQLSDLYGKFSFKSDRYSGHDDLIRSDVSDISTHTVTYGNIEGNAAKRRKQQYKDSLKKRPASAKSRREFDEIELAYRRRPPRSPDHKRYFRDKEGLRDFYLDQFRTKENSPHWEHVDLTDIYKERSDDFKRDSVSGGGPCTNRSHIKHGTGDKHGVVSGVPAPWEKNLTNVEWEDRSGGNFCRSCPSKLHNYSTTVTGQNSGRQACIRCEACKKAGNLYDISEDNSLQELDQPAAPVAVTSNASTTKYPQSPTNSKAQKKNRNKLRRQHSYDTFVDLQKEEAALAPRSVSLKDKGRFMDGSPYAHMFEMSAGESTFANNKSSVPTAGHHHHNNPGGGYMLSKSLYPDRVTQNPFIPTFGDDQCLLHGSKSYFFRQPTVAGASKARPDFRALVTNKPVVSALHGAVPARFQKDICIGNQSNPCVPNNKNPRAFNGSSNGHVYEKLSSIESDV

| SMILES | IC50 [1] [µM] | IC50 [2] [µM] | also measured |
| --- | --- | --- | --- |
| O=c1[nH]c2ncc(-c3cccc(C(F)(F)F)c3)cc2n1CCN1CCCC1 [Example 146, 1-(2-Pyrrolidin-1-ylethyl)-6-[3-(trifluoromethyl)phenyl]-3H-imidazo[4,5-b]pyridin-2-one] | 0.506 | – | – |
| O=C(Cn1c(=O)n(CF)c2ncc(-c3ccc(C(F)(F)F)s3)cc21)N1CC(F)C1 [Example 597, 1-[2-(3-Fluoroazetidin-1-yl)-2-oxo-ethyl]-3-(fluoromethyl)-6-[5-(trifluoromethyl)-2-thienyl]imidazo[4,5-b]pyridin-2-one] | – | 0.063 | – |
| COc1cc(F)ccc1-c1cnc2[nH]c(=O)n(Cc3cccc(F)c3)c2c1 [Example 499, 6-(4-Fluoro-2-methoxy-phenyl)-1-[(3-fluorophenyl)methyl]-3H-imidazo[4,5-b]pyridin-2-one] | – | 0.09 | – |
| COc1ccc(-c2cnc3[nH]c(=O)n(CC4CC4)c3c2)cc1C [Example 468, 1-(Cyclopropylmethyl)-6-(4-methoxy-3-methyl-phenyl)-3H-imidazo[4,5-b]pyridin-2-one] | – | – | IC50 [3]: 4.17 µM |
| COc1ccc(-c2cnc3[nH]c(=O)n(Cc4cccc(C#N)c4)c3c2)cc1 [Example 477, 3-[[6-(4-Methoxyphenyl)-2-oxo-3H-imidazo[4,5-b]pyridin-1-yl]methyl]benzonitrile] | – | – | IC50 [3]: 3.16 µM |
| COc1ccnc(Cn2c(=O)[nH]c3ncc(-c4ccc(C(C)(C)C)cc4)cc32)c1OC [Example 512, 6-(4-tert-Butylphenyl)-1-[(3,4-dimethoxy-2-pyridyl)methyl]-3H-imidazo[4,5-b]pyridin-2-one] | – | – | IC50 [3]: > 29 µM |
| O=C(Cn1c(=O)[nH]c2ncc(-c3cccc(C(F)(F)F)c3)cc21)N1CCC1 [Example 25, 1-[2-(Azetidin-1-yl)-2-oxo-ethyl]-6-[3-(trifluoromethyl)phenyl]-3H-imidazo[4,5-b]pyridin-2-one] | 0.07 | – | – |
| O=C(Cn1c(=O)[nH]c2ncc(-c3ccc(Cl)cc3)cc21)NC1CC1 [Example 453, 2-[6-(4-Chlorophenyl)-2-oxo-3H-imidazo[4,5-b]pyridin-1-yl]-N-cyclopropyl-acetamide] | – | – | IC50 [3]: 0.1 µM |

Second part, led by results:

| IC50 [1] [µM] | IC50 [2] [µM] | SMILES | also measured |
| --- | --- | --- | --- |
| 0.045 | – | Cc1c(F)ccc(-c2cnc3[nH]c(=O)n(Cc4cncc(F)c4)c3c2)c1F [Example 301, 6-(2,4-Difluoro-3-methyl-phenyl)-1-[(5-fluoro-3-pyridyl)methyl]-3H-imidazo[4,5-b]pyridin-2-one] | – |
| – | 0.012 | CCC(=O)Cn1c(=O)[nH]c2ncc(-c3ccc(F)c(C)c3)cc21 [Example 331, 6-(4-Fluoro-3-methyl-phenyl)-1-(2-oxobutyl)-3H-imidazo[4,5-b]pyridin-2-one] | – |
| – | 0.019 | CCC(=O)Cn1c(=O)n(C)c2ncc(-c3ccc(F)c(F)c3)cc21 [Example 390, 6-(3,4-Difluorophenyl)-3-methyl-1-(2-oxobutyl)imidazo[4,5-b]pyridin-2-one] | – |
| – | 0.138 | Cn1c(=O)n(Cc2cncc(F)c2)c2cc(-c3cccc(OC(F)F)c3)cnc21 [Example 342, 6-[3-(Difluoromethoxy)phenyl]-1-[(5-fluoro-3-pyridyl)methyl]-3-methyl-imidazo[4,5-b]pyridin-2-one] | – |
| 0.104 | – | Cc1cc(Cn2c(=O)n(C)c3ncc(-c4ccc(F)c(F)c4)cc32)no1 [Example 8, 6-(3,4-Difluorophenyl)-3-methyl-1-[(5-methylisoxazol-3-yl)methyl]imidazo[4,5-b]pyridin-2-one] | – |
| – | 0.105 | Cn1c(=O)n(Cc2cccnc2)c2cc(-c3cccc(C(F)(F)F)c3)cnc21 [Example 362, 3-Methyl-1-(3-pyridylmethyl)-6-[3-(trifluoromethyl)phenyl]imidazo[4,5-b]pyridin-2-one] | – |
| 0.113 | – | Cc1cc(-c2cnc3c(c2)n(Cc2cnccn2)c(=O)n3C)ccc1F [Example 47, 6-(4-Fluoro-3-methyl-phenyl)-3-methyl-1-(pyrazin-2-ylmethyl)imidazo[4,5-b]pyridin-2-one] | – |
| 0.033 | – | Cn1c(=O)n(CC(=O)N2CC(F)C2)c2cc(-c3ccc(F)s3)cnc21 [Example 83, 1-[2-(3-Fluoroazetidin-1-yl)-2-oxo-ethyl]-6-(5-fluoro-2-thienyl)-3-methyl-imidazo[4,5-b]pyridin-2-one] | – |
